# Several values for one entry are separate records, joined by “and”; a condition that tells them apart may be missing. Equal entries are not always repeated.
# Test system: 556581-035-R-J1-PDC spheroids with HUVEC/MSC, viability
# Assay: Anticancer human tumor 556581-035-R-J1-PDC patient-derived ovarian carcinoma cell line growth inhibition [IpAb]
# Conditions: for viability, T/C: stronger effect = lower value
# Summary of the method: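 Multi-cell spheroids of 60% tumour cells, 25% HUVEC and 15% MSC in ultra-low-attachment U-bottom wells, treated with agents combined with ipatasertib or abemaciclib. Half-log ranges top out near clinical Cmax, or 10 microM when Cmax is unknown.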
# [1] = curve of first compound, second compound 0.01 µM
# [2] = curve of first compound, second compound 0.0316 µM
# [3] = curve of first compound, second compound 0.1 µM
# [4] = curve of first compound, second compound 0.316 µM
# [5] = curve of first compound, second compound 1 µM
# [6] = second compound 0.01 µM, first compound 0.0316 µM
# [7] = second compound 0.01 µM, first compound 0.1 µM
# [8] = second compound 0.0316 µM, first compound 0.0316 µM
# [9] = second compound 0.0316 µM, first compound 0.1 µM
# [10] = second compound 0.1 µM, first compound 0.0316 µM
# [11] = second compound 0.1 µM, first compound 0.1 µM
# [12] = second compound 0.316 µM, first compound 0.0316 µM
# [13] = second compound 0.316 µM, first compound 0.1 µM
# [14] = second compound 1 µM, first compound 0.0316 µM
# [15] = second compound 1 µM, first compound 0.1 µM
# [16] = second compound 0.1 µM, first compound 0.316 µM
# [17] = second compound 0.1 µM, first compound 1 µM
# [18] = second compound 0.1 µM, first compound 3.16 µM
# [19] = second compound 0.1 µM, first compound 10 µM
# [20] = second compound 0.316 µM, first compound 0.316 µM
# [21] = second compound 0.316 µM, first compound 1 µM
# [22] = second compound 0.316 µM, first compound 3.16 µM
# [23] = second compound 0.316 µM, first compound 10 µM
# [24] = second compound 1 µM, first compound 0.316 µM
# [25] = second compound 1 µM, first compound 1 µM
# [26] = second compound 1 µM, first compound 3.16 µM
# [27] = second compound 1 µM, first compound 10 µM
# 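Also: spheroids exposed to compounds for 7 days before readout.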
structure (smiles),measurement,setting,value
Cn1ncnc1[C@H]1c2n[nH]c(=O)c3cc(F)cc(c23)N[C@@H]1c1ccc(F)cc1 + CCN1CCN(Cc2ccc(Nc3ncc(F)c(-c4cc(F)c5nc(C)n(C(C)C)c5c4)n3)nc2)CC1,IC50,[1],> 100 nM
same,IC50,[2],> 100 nM
same,IC50,[3],> 100 nM
same,IC50,[4],83.8 nM
same,IC50,[5],1.65 nM
same,"viability, T/C","second compound 0.01 µM, first compound 0.000316 µM",80.6%
same,"viability, T/C","second compound 0.01 µM, first compound 0.001 µM",107%
same,"viability, T/C","second compound 0.01 µM, first compound 0.00316 µM",80.9%
same,"viability, T/C","second compound 0.01 µM, first compound 0.01 µM",83.6%
same,"viability, T/C",[6],84.1%
same,"viability, T/C",[7],63.7%
same,"viability, T/C","second compound 0.0316 µM, first compound 0.000316 µM",84.9%
same,"viability, T/C","second compound 0.0316 µM, first compound 0.001 µM",82.8%
same,"viability, T/C","second compound 0.0316 µM, first compound 0.00316 µM",90.6%
same,"viability, T/C","second compound 0.0316 µM, first compound 0.01 µM",83.2%
same,"viability, T/C",[8],61.3%
same,"viability, T/C",[9],60%
same,"viability, T/C","second compound 0.1 µM, first compound 0.000316 µM",67.7%
same,"viability, T/C","second compound 0.1 µM, first compound 0.001 µM",81.3%
same,"viability, T/C","second compound 0.1 µM, first compound 0.00316 µM",84.9%
same,"viability, T/C","second compound 0.1 µM, first compound 0.01 µM",83.2%
same,"viability, T/C",[10],63.1%
same,"viability, T/C",[11],55.2%
same,"viability, T/C","second compound 0.316 µM, first compound 0.000316 µM",70.8%
same,"viability, T/C","second compound 0.316 µM, first compound 0.001 µM",77.8%
same,"viability, T/C","second compound 0.316 µM, first compound 0.00316 µM",69.8%
same,"viability, T/C","second compound 0.316 µM, first compound 0.01 µM",79.1%
same,"viability, T/C",[12],59.2%
same,"viability, T/C",[13],48.3%
same,"viability, T/C","second compound 1 µM, first compound 0.000316 µM",51.5%
same,"viability, T/C","second compound 1 µM, first compound 0.001 µM",59.2%
same,"viability, T/C","second compound 1 µM, first compound 0.00316 µM",43.1%
same,"viability, T/C","second compound 1 µM, first compound 0.01 µM",37.3%
same,"viability, T/C",[14],41.9%
same,"viability, T/C",[15],44.4%
Cn1ncc(Cl)c1-c1cc(C(=O)NC(CN)Cc2cccc(F)c2)sc1Cl (configuration not stated) + CC(C)NCC(C(=O)N1CCN(c2ncnc3c2C(C)CC3O)CC1)c1ccc(Cl)cc1,IC50,[3],1860 nM
same,IC50,[4],2390 nM
same,IC50,[5],1900 nM
same,IC50,"curve of first compound, second compound 3.16 µM",1310 nM
same,IC50,"curve of first compound, second compound 10 µM",1190 nM
same,"viability, T/C",[10],84%
same,"viability, T/C",[11],81.2%
same,"viability, T/C",[16],68.5%
same,"viability, T/C",[17],63.4%
same,"viability, T/C",[18],40.9%
same,"viability, T/C",[19],0.2%
same,"viability, T/C",[12],37.8%
same,"viability, T/C",[13],79.6%
same,"viability, T/C",[20],67.2%
same,"viability, T/C",[21],56.8%
same,"viability, T/C",[22],47.3%
same,"viability, T/C",[23],0.21%
same,"viability, T/C",[14],70.2%
same,"viability, T/C",[15],67.2%
same,"viability, T/C",[24],67.6%
same,"viability, T/C",[25],55.3%
same,"viability, T/C",[26],45.1%
same,"viability, T/C",[27],0.18%
same,"viability, T/C","second compound 3.16 µM, first compound 0.0316 µM",55.3%
same,"viability, T/C","second compound 3.16 µM, first compound 0.1 µM",74.6%
same,"viability, T/C","second compound 3.16 µM, first compound 0.316 µM",54.4%
same,"viability, T/C","second compound 3.16 µM, first compound 1 µM",54.2%
same,"viability, T/C","second compound 3.16 µM, first compound 3.16 µM",37.8%
same,"viability, T/C","second compound 3.16 µM, first compound 10 µM",1.42%
same,"viability, T/C","second compound 10 µM, first compound 0.0316 µM",51.8%
same,"viability, T/C","second compound 10 µM, first compound 0.1 µM",55.7%
same,"viability, T/C","second compound 10 µM, first compound 0.316 µM",51.5%
same,"viability, T/C","second compound 10 µM, first compound 1 µM",53.4%
same,"viability, T/C","second compound 10 µM, first compound 3.16 µM",32.5%
same,"viability, T/C","second compound 10 µM, first compound 10 µM",4.77%
Cn1nccc1Nc1nccc(-c2ccn(C(CO)c3ccc(Cl)c(F)c3)c(=O)c2)n1 (configuration not stated),"viability, T/C",compound 0.0316 µM,114% and 133%
same,"viability, T/C",compound 0.1 µM,117% and 135%
same,"viability, T/C",compound 0.316 µM,103% and 124%
same,"viability, T/C",compound 1 µM,86.2% and 104%
same,"viability, T/C",compound 3.16 µM,61.3% and 88.7%
same,"viability, T/C",compound 10 µM,17.8% and 38.4%
same,IC50,curve of compound,4160 nM and 7690 nM
CCCS(=O)(=O)Nc1ccc(F)c(C(=O)c2c[nH]c3ncc(-c4ccc(Cl)cc4)cc23)c1F + CCN1CCN(Cc2ccc(Nc3ncc(F)c(-c4cc(F)c5nc(C)n(C(C)C)c5c4)n3)nc2)CC1,IC50,[1],> 10000 nM
same,IC50,[2],> 10000 nM
same,IC50,[3],> 10000 nM
same,IC50,[4],> 10000 nM
same,IC50,[5],> 10000 nM
same,"viability, T/C",[6],114%
same,"viability, T/C",[7],106%
same,"viability, T/C","second compound 0.01 µM, first compound 0.316 µM",123%
same,"viability, T/C","second compound 0.01 µM, first compound 1 µM",116%
same,"viability, T/C","second compound 0.01 µM, first compound 3.16 µM",129%
same,"viability, T/C","second compound 0.01 µM, first compound 10 µM",71.9%
same,"viability, T/C",[8],99%
same,"viability, T/C",[9],97.2%
same,"viability, T/C","second compound 0.0316 µM, first compound 0.316 µM",109%
same,"viability, T/C","second compound 0.0316 µM, first compound 1 µM",104%
same,"viability, T/C","second compound 0.0316 µM, first compound 3.16 µM",110%
same,"viability, T/C","second compound 0.0316 µM, first compound 10 µM",60.9%
same,"viability, T/C",[10],128%
same,"viability, T/C",[11],113%
same,"viability, T/C",[16],123%
same,"viability, T/C",[17],104%
same,"viability, T/C",[18],100%
same,"viability, T/C",[19],61%
same,"viability, T/C",[12],105%
same,"viability, T/C",[13],98.4%
same,"viability, T/C",[20],99.1%
same,"viability, T/C",[21],93.9%
same,"viability, T/C",[22],77.6%
same,"viability, T/C",[23],57.6%
same,"viability, T/C",[14],67.7%
same,"viability, T/C",[15],54.9%
same,"viability, T/C",[24],73.1%
same,"viability, T/C",[25],61%
same,"viability, T/C",[26],57.2%
same,"viability, T/C",[27],59.8%

# From PubChem BioAssay AID2060338 (Molecular Pharmacology Branch, DTP, NCI, 2025)
